The values that follow come from patent publication US7229966B2, “Compositions and methods for enhanced mucosal delivery of Y2 receptor-binding peptides and methods for treating and preventing obesity” (Nastech Pharmaceutical Company Inc., priority 2002, dated 2007).

Like-named read-outs stand apart in the source and are kept apart here. Some results are limits rather than exact numbers.

By melting point is commonly meant the temperature, or range, at which the solid turns liquid.

The subject of series [1] is ciliary motility. The conditions noted are these: cited from earlier work.
In series [2] the test system is aminopeptidases. Conditions: cited from earlier work.
The conditions of series [3]: aqueous solution at physiologic pH; cited from earlier work.
For series [4] the following is noted: 0.5 mg/mL in phosphate buffer, pH 7.4; vortex mixing 1 min; cited from earlier work.
The conditions of series [5]: anesthetized rats, cited from earlier work.

For the compound “2-alkyl-4-hydroxyquinolines [pyo compound]”, the “concentration producing ciliostasis / inhibiting ciliary motility” value in series [1] was 50 µg/mL.
With `CC(C)CC(N)B(O)O` (stereo not drawn) [boro-leucine], in series [2], the “effectiveness in enzyme inhibition relative to bestatin” value was “more than 100 times” and the “effectiveness in enzyme inhibition relative to puromycin” value is “more than 1000 times”.
Take `CCN(CC)/[N+]([O-])=N/O.CCNCC` [diethylamine/NO]: the NO release time in series [3] was < 3 min.
With `CC(C(=O)[O-])c1ccc(NC(=O)c2ccccc2O)cc1.[Na+]` (stereo not drawn) [Sodium Salt of Carrier B, Sodium 2-(4-(N-salicyloyl)aminophenyl)propionate], the melting point was in the range of 236 to 238 °C.
Regarding `NCCN(CCN)/[N+]([O-])=N/O` [diethylenetriamine/NO (DETANO), diethylenetriamine/NO], in series [3], the NO release time result is “approximately 20 hours”.
Regarding “human growth hormone (hGH): peptide hormone human growth hormone”, in series [4], the “drug precipitated as insoluble aggregates” value is 67%. Further, the nasal bioavailability is 12.2% in series [5] (with N-acetyl-L-cysteine (ACS)) and 7.5% in series [5] (without N-acetyl-L-cysteine).
